The Kd is the equilibrium constant for the complex coming apart. Low values mean higher affinity, high ones lower affinity. For orientation: IC50 means the concentration that gives 50% inhibition.

One test concerns the target T1, cytochrome P450 2B4 (Oryctolagus cuniculus, UniProt P00178, H226Y).
T1 sequence (P00178 28-491 H226Y): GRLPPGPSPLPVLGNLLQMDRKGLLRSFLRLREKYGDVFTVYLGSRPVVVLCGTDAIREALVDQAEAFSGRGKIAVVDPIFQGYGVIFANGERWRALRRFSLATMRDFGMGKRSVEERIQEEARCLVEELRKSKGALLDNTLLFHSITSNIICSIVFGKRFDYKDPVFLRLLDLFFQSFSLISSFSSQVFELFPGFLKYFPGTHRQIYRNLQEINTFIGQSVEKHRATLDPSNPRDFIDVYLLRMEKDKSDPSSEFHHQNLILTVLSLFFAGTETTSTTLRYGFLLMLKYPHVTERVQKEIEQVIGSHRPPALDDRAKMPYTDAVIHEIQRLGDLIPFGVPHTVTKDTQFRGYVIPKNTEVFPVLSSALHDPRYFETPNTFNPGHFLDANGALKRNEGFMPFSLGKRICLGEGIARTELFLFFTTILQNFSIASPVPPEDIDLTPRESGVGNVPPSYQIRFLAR
Briefly: X-ray crystal structure. The test is classed as binding.

The next test deals with T2, cytochrome P450 2B6 (Homo sapiens, UniProt P20813, K262R/Y226H).
T2 sequence (P20813 29-491 Y226H/K262R): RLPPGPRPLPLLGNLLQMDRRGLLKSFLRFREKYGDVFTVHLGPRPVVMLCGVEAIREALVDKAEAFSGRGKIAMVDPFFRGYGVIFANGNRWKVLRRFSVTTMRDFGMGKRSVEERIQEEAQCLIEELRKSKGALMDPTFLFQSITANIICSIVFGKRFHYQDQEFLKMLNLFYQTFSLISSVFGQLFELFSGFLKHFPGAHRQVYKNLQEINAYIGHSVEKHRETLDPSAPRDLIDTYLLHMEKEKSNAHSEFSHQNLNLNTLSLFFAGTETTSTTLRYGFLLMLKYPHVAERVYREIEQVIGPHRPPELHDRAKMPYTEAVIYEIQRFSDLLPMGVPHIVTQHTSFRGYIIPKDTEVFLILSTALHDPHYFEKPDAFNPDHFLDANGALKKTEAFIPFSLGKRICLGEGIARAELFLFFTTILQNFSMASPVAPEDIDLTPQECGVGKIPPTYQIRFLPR
In words: X-ray crystal structure. It counts as biochemical.

On to `CCOC(=O)C1=C(COCCN)NC(C)=C(C(=O)OC)C1c1ccccc1Cl` (centres unmarked) [amlodipine], for which the Kd on cytochrome P450 2B4 is 2060 nM. Moreover, it took 1600 nM to reach half-maximal inhibition against cytochrome P450 2B6 (IC50).

For the origin of these results see publication PMC3485383 (Biochemistry, 2012).
